Biological target: T1, human GPR119 (Homo sapiens, UniProt Q8TDV5)
T1 construct: expression vector for human GPR119 cDNA (Acc. No. NP_848566); expressed in transfected cells; Min-6/hGPR119
T1 sequence (Q8TDV5 1-335): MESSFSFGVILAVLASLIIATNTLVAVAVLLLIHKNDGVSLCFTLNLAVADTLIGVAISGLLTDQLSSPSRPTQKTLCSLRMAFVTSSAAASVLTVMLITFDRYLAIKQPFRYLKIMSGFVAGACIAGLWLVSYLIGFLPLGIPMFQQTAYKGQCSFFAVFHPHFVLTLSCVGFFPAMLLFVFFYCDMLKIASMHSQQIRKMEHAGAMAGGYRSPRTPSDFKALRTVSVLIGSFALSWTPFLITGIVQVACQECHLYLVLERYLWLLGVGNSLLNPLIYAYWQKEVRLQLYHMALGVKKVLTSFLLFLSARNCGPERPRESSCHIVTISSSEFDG
Experiment: AlphaScreen cAMP assay in MIN6 cells stably transfected with human GPR119
Type: cell-based
Details: Min-6/hGPR119 cells, 45 min at room temperature
Outline: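 MIN6 cells stably expressing human GPR119, seeded 10000/well and grown 24 h, were exposed to compound in pH 7.4 buffer with 0.5 mM IBMX, 0.1% BSA and 1% DMSO for 45 min at room temperature. Intracellular cAMP then measured by AlphaScreen.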

EC50 [nM]	SMILES
147	Cc1nc(CNC(=O)c2ccc(-c3ncc(C(=O)N(C4CC4)C4CCN(C(=O)OC(C)(C)C)CC4)cn3)cc2F)cs1 [Example 119, 4-[Cyclopropyl-(2-{3-fluoro-4-[(2-methyl-thiazol-4-ylmethyl)-carbamoyl]-phenyl}-pyrimidine-5-carbonyl)-amino]-piperidine-1-carboxylic acid tert-butyl ester]
212	COc1ccc(NC(=O)c2ccc(-c3ncc(C(=O)N(C4CC4)C4CCN(C(=O)OC(C)(C)C)CC4)cn3)cc2F)c(OC)c1 [Example 120, 4-(Cyclopropyl-{2-[4-(2,4-dimethoxy-phenylcarbamoyl)-3-fluoro-phenyl]-pyrimidine-5-carbonyl}-amino)-piperidine-1-carboxylic acid tert-butyl ester]
180	CC(C)(C)OC(=O)N1CCC(N(C(=O)c2cnc(-c3ccc(C(=O)Nc4ccc(CO)cc4)c(F)c3)nc2)C2CC2)CC1 [Example 121, 4-(Cyclopropyl-{2-[3-fluoro-4-(4-hydroxymethyl-phenylcarbamoyl)-phenyl]-pyrimidine-5-carbonyl}-amino)-piperidine-1-carboxylic acid tert-butyl ester]
55	COc1ccc(NC(=O)c2ccc(-c3ncc(C(=O)N(C4CC4)C4CCN(C(=O)OC(C)(C)C)CC4)cn3)cc2F)cn1 [Example 122, 4-(Cyclopropyl-{2-[3-fluoro-4-(6-methoxy-pyridin-3-ylcarbamoyl)-phenyl]-pyrimidine-5-carbonyl}-amino)-piperidine-1-carboxylic acid tert-butyl ester]
637	CC(C)(C)OC(=O)N1CCC(N(C(=O)c2cnc(-c3ccc(C(=O)NCCS(C)(=O)=O)c(F)c3)nc2)C2CC2)CC1 [Example 123, 4-(Cyclopropyl-{2-[3-fluoro-4-(2-methanesulfonyl-ethylcarbamoyl)-phenyl]-pyrimidine-5-carbonyl}-amino)-piperidine-1-carboxylic acid tert-butyl ester]
102	CN(CCOCC1CC1)C(=O)c1ccc(-c2ncc(C(=O)N(C3CC3)C3CCN(C(=O)OC(C)(C)C)CC3)cn2)cc1F [Example 124, 4-[Cyclopropyl-(2-{4-[(2-cyclopropylmethoxy-ethyl)-methyl-carbamoyl]-3-fluoro-phenyl}-pyrimidine-5-carbonyl)-amino]-piperidine-1-carboxylic acid tert-butyl ester]
180	CC(C)(C)OC(=O)N1CCC(N(C(=O)c2cnc(-c3ccc(C(=O)N4CCC[C@H]4C#N)c(F)c3)nc2)C2CC2)CC1 [Example 125, 4-({2-[4-(2-Cyano-pyrrolidine-1-carbonyl)-3-fluoro-phenyl]-pyrimidine-5-carbonyl}-cyclopropyl-amino)-piperidine-1-carboxylic acid tert-butyl ester]
99	CC(C)(C)OC(=O)N1CCC(N(C(=O)c2cnc(-c3ccc(C(=O)NCc4ccncc4)c(F)c3)nc2)C2CC2)CC1 [Example 126, 4-[Cyclopropyl-(2-{3-fluoro-4-[(pyridin-4-ylmethyl)-carbamoyl]-phenyl}-pyrimidine-5-carbonyl)-amino]-piperidine-1-carboxylic acid tert-butyl ester]
108	CN(Cc1cccnc1)C(=O)c1ccc(-c2ncc(C(=O)N(C3CC3)C3CCN(C(=O)OC(C)(C)C)CC3)cn2)cc1F [Example 127, 4-(Cyclopropyl-{2-[3-fluoro-4-(methyl-pyridin-3-ylmethyl-carbamoyl)-phenyl]-pyrimidine-5-carbonyl}-amino)-piperidine-1-carboxylic acid tert-butyl ester]
156	CC(C)(C)OC(=O)N1CCC(N(C(=O)c2cnc(-c3ccc(C(=O)NCC4CCOCC4)c(F)c3)nc2)C2CC2)CC1 [Example 128, 4-[Cyclopropyl-(2-{3-fluoro-4-[(tetrahydro-pyran-4-ylmethyl)-carbamoyl]-phenyl}-pyrimidine-5-carbonyl)-amino]-piperidine-1-carboxylic acid tert-butyl ester]
548	CC(C)(C)OC(=O)N1CCC(N(C(=O)c2cnc(-c3ccc(C(=O)N4CCCC(CO)C4)c(F)c3)nc2)C2CC2)CC1 (stereo not drawn) [Example 129, 4-(Cyclopropyl-{2-[3-fluoro-4-(3-hydroxymethyl-piperidine-1-carbonyl)-phenyl]-pyrimidine-5-carbonyl}-amino)-piperidine-1-carboxylic acid tert-butyl ester]
193	COCC(C)NC(=O)c1ccc(-c2ncc(C(=O)N(C3CC3)C3CCN(C(=O)OC(C)(C)C)CC3)cn2)cc1F (stereo not drawn) [Example 130, 4-(Cyclopropyl-{2-[3-fluoro-4-(2-methoxy-1-methyl-ethylcarbamoyl)-phenyl]-pyrimidine-5-carbonyl}-amino)-piperidine-1-carboxylic acid tert-butyl ester]
175	CC(C)(C)OC(=O)N1CCC(N(C(=O)c2cnc(-c3ccc(C(=O)NCC4CCOC4)c(F)c3)nc2)C2CC2)CC1 (stereo not drawn) [Example 131, 4-[Cyclopropyl-(2-{3-fluoro-4-[(tetrahydro-furan-3-ylmethyl)-carbamoyl]-phenyl}-pyrimidine-5-carbonyl)-amino]-piperidine-1-carboxylic acid tert-butyl ester]
98	CN(CC#N)C(=O)c1ccc(-c2ncc(C(=O)N(C3CC3)C3CCN(C(=O)OC(C)(C)C)CC3)cn2)cc1F [Example 132, 4-({2-[4-(Cyanomethyl-methyl-carbamoyl)-3-fluoro-phenyl]-pyrimidine-5-carbonyl}-cyclopropyl-amino)-piperidine-1-carboxylic acid tert-butyl ester]
516	COC1CCN(C(=O)c2ccc(-c3ncc(C(=O)N(C4CC4)C4CCN(C(=O)OC(C)(C)C)CC4)cn3)c(F)c2)CC1 [Example 133, 4-(Cyclopropyl-{2-[2-fluoro-4-(4-methoxy-piperidine-1-carbonyl)-phenyl]-pyrimidine-5-carbonyl}-amino)-piperidine-1-carboxylic acid tert-butyl ester]
561	COC[C@H]1CCCN1C(=O)c1ccc(-c2ncc(C(=O)N(C3CC3)C3CCN(C(=O)OC(C)(C)C)CC3)cn2)c(F)c1 [Example 134, 4-(Cyclopropyl-{2-[2-fluoro-4-(2-methoxymethyl-pyrrolidine-1-carbonyl)-phenyl]-pyrimidine-5-carbonyl}-amino)-piperidine-1-carboxylic acid tert-butyl ester]
914	COCC(C)N(C)C(=O)c1ccc(-c2ncc(C(=O)N(C3CC3)C3CCN(C(=O)OC(C)(C)C)CC3)cn2)c(F)c1 (stereo not drawn) [Example 135, 4-[Cyclopropyl-(2-{2-fluoro-4-[(2-methoxy-1-methyl-ethyl)-methyl-carbamoyl]-phenyl}-pyrimidine-5-carbonyl)-amino]-piperidine-1-carboxylic acid tert-butyl ester]
194	Cn1ccc(CNC(=O)c2ccc(-c3ncc(C(=O)N(C4CC4)C4CCN(C(=O)OC(C)(C)C)CC4)cn3)cc2F)n1 [Example 136, 4-[Cyclopropyl-(2-{3-fluoro-4-[(1-methyl-1H-pyrazol-3-ylmethyl)-carbamoyl]-phenyl}-pyrimidine-5-carbonyl)-amino]-piperidine-1-carboxylic acid tert-butyl ester]
264	COC1CN(C(=O)c2ccc(-c3ncc(C(=O)N(C4CC4)C4CCN(C(=O)OC(C)(C)C)CC4)cn3)cc2F)C1 [Example 137, 4-(Cyclopropyl-{2-[3-fluoro-4-(3-methoxy-azetidine-1-carbonyl)-phenyl]-pyrimidine-5-carbonyl}-amino)-piperidine-1-carboxylic acid tert-butyl ester]
346	CN(CCOCC1CC1)C(=O)c1ccc(-c2ncc(C(=O)N(C3CC3)C3CCN(C(=O)OC(C)(C)C)CC3)cn2)c(F)c1 [Example 138, 4-[Cyclopropyl-(2-{4-[(2-cyclopropylmethoxy-ethyl)-methyl-carbamoyl]-2-fluoro-phenyl}-pyrimidine-5-carbonyl)-amino]-piperidine-1-carboxyli acid tert-butyl ester]
263	CN(Cc1ccncc1)C(=O)c1ccc(-c2ncc(C(=O)N(C3CC3)C3CCN(C(=O)OC(C)(C)C)CC3)cn2)cc1F [Example 139, 4-(Cyclopropyl-{2-[3-fluoro-4-(methyl-pyridin-4-ylmethyl-carbamoyl)-phenyl]-pyrimidine-5-carbonyl}-amino)-piperidine-1-carboxylic acid tert-butyl ester]
441	CN(CC#N)C(=O)c1ccc(-c2ncc(C(=O)N(C3CC3)C3CCN(C(=O)OC(C)(C)C)CC3)cn2)c(F)c1 [Example 140, 4-({2-[4-(Cyanomethyl-methyl-carbamoyl)-2-fluoro-phenyl]-pyrimidine-5-carbonyl}-cyclopropyl-amino)-piperidine-1-carboxylic acid tert-butyl ester]
231	CC(C)(C)OC(=O)N1CCC(N(C(=O)c2cnc(-c3ccc(C(=O)N4CCC(O)(C(F)(F)F)CC4)c(F)c3)nc2)C2CC2)CC1 [Example 141, 4-(Cyclopropyl-{2-[3-fluoro-4-(4-hydroxy-4-trifluoromethyl-piperidine-1-carbonyl)-phenyl]-pyrimidine-5-carbonyl}-amino)-piperidine-1-carboxylic acid tert-butyl ester]
105	CC(C)(C)OC(=O)N1CCC(N(C(=O)c2cnc(-c3ccc(C(=O)NCCOC(F)(F)F)c(F)c3)nc2)C2CC2)CC1 [Example 142, 4-(Cyclopropyl-{2-[3-fluoro-4-(2-trifluoromethoxy-ethylcarbamoyl)-phenyl]-pyrimidine-5-carbonyl}-amino)-piperidine-1-carboxylic acid tert-butyl ester]

Reference: patent publication US20140045823A1 (Neurocrine Biosciences, Inc., priority 2012, published 2014)
